Results on 1 substance are retold here after patent publication US20240060999A1, “BLOOD COAGULATION INSPECTION METHOD” (FUJIMORI KOGYO CO., LTD, priority 2020, published 2024).

This assay relates to whole blood. The experiment in a line: ROTEM whole blood coagulation with dialyzed Dade Innovin (recombinant tissue factor) 0.569 μg/mL + Ca 12 mM + CTI 20 μg/mL + PKSI-527 40 μM. It counts as cell-based. Particulars: Ex26; for CT (clotting time): Innovin 0.569 μg/mL+Ca+CTI+PKSI-527, heparan sulfate 2 μg/mL. As to the method:
ROTEM was used to analyze blood coagulation.
Blood was collected using a blood collection tube containing 3.2% sodium citrate manufactured by Terumo Corporation.
Blood coagulation was analyzed in the case of having added 4% (final concentration 0.569 μg/mL) of Dade Innovin (recombinant tissue factor: Sysmex Corporation) having being diluted by 50 times after dialysis, calcium chloride (Ca; final concentration 12 mM), heparan sulfate (final concentration 0 or 2 μg/mL), CTI (final concentration 20 μg/mL), PKSI-527 (final concentration 40 μM) without and with a soluble thrombomodulin (rTM: final concentration 30 nM) further having been added, as well as with an APC inhibitory aptamer (HS02-44G; final concentration 1 μM) in addition to 30 nM of soluble thrombomodulin.
Blood coagulation was analyzed in the case of having added 4% (final concentration 0.569 μg/mL) of 50-fold diluted Dade Innovin (recombinant tissue factor: Sysmex Corporation) after dialysis, calcium chloride (Ca; final concentration 12 mM), low molecular weight heparan (trade name FRAGMIN; Pfizer) (final concentration 0 or 0.2 U/mL), CTI (final concentration 20 μg/mL), and PKSI-527 (final concentration 40 μM) with and without a soluble thrombomodulin (rTM; final concentration 30 nM) further having been added, as well as with an APC inhibitory aptamer (HS02-44G; final concentration 1 μM) in addition to 30 nM soluble thrombomodulin.
ROTEM was used to analyze coagulation.
Blood coagulation was analyzed in the case of having added 4% (final concentration 0.569 μg/mL) of 50-fold diluted Dade Innovin (recombinant tissue factor: Sysmex Corporation) after dialysis, calcium chloride (Ca; final concentration 12 mM), ARIXTRA (final concentration 0 or […]), CTI (final concentration 20 μg/mL), and PKSI-527 (final concentration 40 μM), without and with thrombomodulin (rTM; final concentration 30 nM) further having been added, as well as with an APC inhibitory aptamer (HS02-44G; final concentration 1 μM) in addition to soluble thrombomodulin 30 nM.

As for Heparan sulfate, the “CT (clotting time)” value runs as follows: (no rTM) 410 s; (rTM 30 nM) 904 s; (rTM 30 nM+APC inhibitory aptamer 1 μM) 643 s. For the same substance, the “anticoagulation ability of the soluble thrombomodulin” value (addition of heparan sulfate 2 μg/mL, rTM 30 nM) was “markedly enhanced”.
